Test system: db/+ mice
Test: OGTT in glucose loaded db/+ mice
Type: in vivo
Experimental: Male C57BL6-db/+ mice (12-18 week old, 18-20 g body weight) were procured from National Animal Laboratory Centre (NALC) of Central Drug Research Institute (CDRI), Lucknow, India Animals were housed in polypropylene cages, in controlled environment (temperature 25±2° C.; humidity 50-60%; light 300 lux at floor level with regular 12 h light-12 h dark cycle; noise level 50 decibel; ventilation 10-15 air changes per hour). They were provided with a standard laboratory diet (Dayal Industry, Barabanki, Lucknow) unless stated otherwise and has free access to water. The mice having fasting blood glucose values varying between 65-80 mg/dl were finally included in this study. Animals were divided into groups consisting of six animals in each. Group one was considered as control group, where as the other groups were termed as experimental groups. Rats of experimental groups were given the desired doses of the test samples i.e. 5, 10, 20, 30 and 50 mg/kg body weight. The test samples were always prepared in the vehicle 1% gum acacia. An oral glucose load of 3.0 g/kg was given to the animals of all the groups 30 min post administration of the test samples/vehicle. Blood glucose levels of the animals of all the groups were again measured at 30, 60, 90 and 120 min post glucose load. Food (not water) was removed from the cages during the experimental period. […] Comparing the AUC of test sample treated to that of control group determined the percent improvement in OGTT by test sample which is termed as anti-hyperglycaemic activity. Statistical comparison between the groups was done by employing Students t test.

For `C/C(=N\OCCN1CCCCC1)[C@H]1CC[C@H]2[C@@H]3CC=C4C[C@@H](O)CC[C@]4(C)[C@H]3CC[C@]12C` [Compound 14b, 3β-Hydroxy-pregna-5-en-20-one-O-(2-piperidin-1-yl-ethyl)-oxime], the “% Antihyperglycaemic activity (OGTT improvement)” value (“% Antihyperglycaemic activity” below) (5 mg/kg) was 10.5%, the “% Antihyperglycaemic activity” value (10 mg/kg) was 19.8% and the “% Antihyperglycaemic activity” value (20 mg/kg) was 24.5%. The “% Antihyperglycaemic activity” value (30 mg/kg) was 28.9% and the “% Antihyperglycaemic activity” value (50 mg/kg) was 35.9%.

Reference: patent publication US20160009752A1, “[…]-OXIMINO-AMINOALKYLETHERS AND PROCESS FOR PREPARATION THEREOF, USEFUL AS ANTIDIABETIC AND […] AGENTS” (COUNCIL OF SCIENTIFIC & INDUSTRIAL RESEARCH, priority 2013, published 2016)
